Assay [1] concerns the target T1, δ opioid receptor (Homo sapiens, UniProt P41143).
T1 construct: expressed in transfected cells; host or cells: CHO cells (membranes)
Description: Competition binding assay on membranes of CHO cells expressing δ opioid receptor, [3H]-labeled ligand. In short, it runs like this: (§1)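 CHO membranes (20–30 μg protein) incubated with [3H]-labeled ligand at 1–2 nM and test compounds, 30 min at 30° C; nonspecific binding with 1 μM corresponding ligand. Filtered on GF/C, washed with 50 mM Tris-HCl pH 7.4, scintillation-counted. IC50 converted to Ki by Ki=IC50/(1+[L]/Kd).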

Assay [2] concerns the target T2, μ opioid receptor (Homo sapiens, UniProt P35372).
T2 construct: expressed in transfected cells; host or cells: CHO cells (membranes)
Nature of the assay: Competition binding assay on membranes of CHO cells expressing μ opioid receptor, [3H]-labeled ligand. The gist of the method:
as §1

Assay [3] deals with T3, κ opioid receptor (Homo sapiens, UniProt P41145).
T3 construct: expressed in transfected cells; host or cells: CHO cells (membranes)
Description: Competition binding assay on membranes of CHO cells expressing κ opioid receptor, [3H]-labeled ligand. In short, it runs like this:
as §1

The mark [4] stands for this setting: Table 3-1, 1 μM concentration of compounds.
Setting [5] is: Table 4-1, 1 μM concentration of compound.

Molecules are shown by their SMILES. Read-outs that look alike come from different tables or passages of the source.

Regarding `COc1cccc(C2(O)CCCCC2CN(C)C)c1` (stereo not drawn) [Tramadol, reference compound], the inhibition at 10 µM in assay [1] (0.5 h, Table 1-1, 10 μM concentration of compound, read-out: δOR Binding rate (%)) was found to be 0%; in assay [2] (Table 1-1, 10 μM concentration of compound, mean ± SD of three measurements, read-out: μOR Binding rate (%)), 6 ± 0.4%; in assay [3] (0.5 h, Table 1-1, 10 μM concentration of compound, read-out: κOR Binding rate (%)) it was 0%. Besides, the inhibition at 1 µM in assay [1] (0.5 h, Table 2-1, 1 μM concentration of compound, read-out: δOR Binding rate (%)) stood at 0%; in assay [1] (0.5 h, Table 5-1, 1 μM concentration of compound, read-out: δOR Combination rate (%)) it was 0%; in assay [2] (0.5 h, Table 5-1, 1 μM concentration of compound, read-out: μOR Combination rate (%)), 6 ± 0.4%; in assay [2] (Table 2-1, 1 μM concentration of compound, read-out: μOR Binding rate (%)), 6 ± 0.4%; in assay [3] (0.5 h, Table 2-1, 1 μM concentration of compound, read-out: κOR Binding rate (%)), 0%; in assay [3] (0.5 h, Table 5-1, 1 μM concentration of compound, read-out: κOR Combination rate (%)), 0%. In addition, the “δOR Binding rate (%)” value in assay [1] (setting [4]) and in assay [1] (setting [5]) was 0% each time. For the same molecule, the “μOR Binding rate (%)” value in assay [2] (setting [4]) came out at 6.0%; in assay [2] (setting [5]), 6.0 ± 0.4%. The “κOR Binding rate (%)” value in assay [3] (setting [4]) and in assay [3] (setting [5]) was 0% in each case.
